Data on three compounds can be found in article PMC9233891 (Bioorganic Chemistry, 2022).

For experiment [1], the system named is S protein / ACE2 interaction. The note with it: previous study; cited from earlier work.
In experiment [2] the test system is ancestral SARS-CoV-2. As to the kind of experiment: microbe, parasite or virus in culture. As to conditions: Severe acute respiratory syndrome coronavirus 2, Vero, 24 h, read-out: IC50, inhibition of SARS-CoV-2 infection. In kind it is cell-based.

The structures appear in SMILES notation.

On to `C[C@@H]1O[C@@H](O[C@H]2[C@H](OC(=O)[C@]34CCC(C)(C)C[C@H]3C3=CC[C@@H]5[C@@]6(C)C[C@H](O)[C@H](O[C@@H]7O[C@H](CO)[C@@H](O)[C@H](O)[C@H]7O)C(CO)(CO)[C@@H]6CC[C@@]5(C)[C@]3(C)C[C@H]4O)OC[C@H](O)[C@@H]2O)[C@H](O)[C@H](O)[C@H]1O[C@@H]1OC[C@@H](O)[C@H](O[C@@H]2OC[C@](O)(CO)[C@H]2O)[C@H]1O` [Platycodin D, platycodin D], for which the “inhibition of the interaction between the S protein and ACE2” value in experiment [1] was “does not inhibit the interaction between the S protein and ACE2”.
The term IC50 denotes the point on the concentration scale where inhibition reaches its midpoint. Regarding `CCC(CC)COC(=O)[C@H](C)N[P@](=O)(OC[C@H]1O[C@@](C#N)(c2ccc3c(N)ncnn23)[C@H](O)[C@@H]1O)Oc1ccccc1` [remdesivir], the IC50 in experiment [2] stood at 4.67 µM.
The same measure, in the same setting: the figure for `CCN(CC)CCCC(C)Nc1ccnc2cc(Cl)ccc12` (stereo not drawn) [chloroquine] is 5.56 µM.
